This is an account of results in US9522886B2, “Pyridine derivatives” (Hoffmann-La Roche Inc., priority 2012, dated 2016).

For one test, the target named is human CB2 receptors (Homo sapiens (Human), UniProt P34972). Nature of the test: cAMP assay, CHO cells expressing human CB2 receptors. In kind it is cell-based. As to conditions: functional cAMP assay, CHO cells expressing human CB2; read-out: human CB2 EC50. As to the method:
(§1) CHO cells expressing human CB1 or CB2 receptors are seeded 17-24 hours prior to the experiment 50.000 cells per well in a black 96 well plate with flat clear bottom (Corning Costar #3904) in DMEM (Invitrogen No. 31331), 1×HT supplement, with 10% fetal calf serum and incubated at 5% CO2 and 37° C. in a humidified incubator. The growth medium was exchanged with Krebs Ringer Bicarbonate buffer with 1 mM IBMX and incubated at 30° C. for 30 min. Compounds were added to a final assay volume of 100 μl and incubated for 30 min at 30° C. Using the cAMP-Nano-TRF detection kit the assay (Roche Diagnostics) was stopped by the addition of 50 μl lysis reagent (Tris, NaCl, 1.5% Triton X100, 2.5% NP40, 10% NaN3) and 50 μl detection solutions (20 μM mAb Alexa700-cAMP 1:1, and 48 μM Ruthenium-2-AHA-cAMP) and shaken for 2 h at room temperature. The time-resolved energy transfer is measured by a TRF reader (Evotec Technologies GmbH), equipped with a ND:YAG laser as excitation source. The plate is measured twice with the excitation at 355 nm and at the emission with a delay of 100 ns and a gate of 100 ns, total exposure time 10 s at 730 (bandwidth 30 nm) or 645 nm (bandwidth 75 nm), respectively.
(§2) EC50 values were determined using Activity Base analysis (ID Business Solution, Limited).
On the technique in general: Cyclic AMP is a second messenger, typically raised through Gs and lowered through Gi signalling.

For the next test, the target named is human CB1 receptors (Homo sapiens (Human), UniProt P21554). Nature of the test: cAMP assay, CHO cells expressing human CB1 receptors. In kind it is cell-based. On the procedure:
as §1, §2

Where [1] appears, read: functional cAMP assay, CHO cells expressing human CB1, read-out: human CB1 EC50.

Where two headings read alike, the source gives them in different places.

human CB1 receptors, sequence (P21554 whole entry): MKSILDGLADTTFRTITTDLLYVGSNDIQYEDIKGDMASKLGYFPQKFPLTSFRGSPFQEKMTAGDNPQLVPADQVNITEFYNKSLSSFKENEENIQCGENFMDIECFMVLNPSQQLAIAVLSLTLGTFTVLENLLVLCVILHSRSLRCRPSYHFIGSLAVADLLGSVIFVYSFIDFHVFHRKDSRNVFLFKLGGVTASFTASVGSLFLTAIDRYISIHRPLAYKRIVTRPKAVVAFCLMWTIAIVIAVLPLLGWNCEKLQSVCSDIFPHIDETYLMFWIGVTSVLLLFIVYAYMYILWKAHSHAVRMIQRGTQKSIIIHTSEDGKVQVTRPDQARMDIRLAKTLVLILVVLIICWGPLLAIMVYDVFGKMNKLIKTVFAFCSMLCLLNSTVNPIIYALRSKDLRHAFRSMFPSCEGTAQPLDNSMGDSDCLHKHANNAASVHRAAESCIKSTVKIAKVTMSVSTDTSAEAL
human CB2 receptors, sequence (P34972 whole entry): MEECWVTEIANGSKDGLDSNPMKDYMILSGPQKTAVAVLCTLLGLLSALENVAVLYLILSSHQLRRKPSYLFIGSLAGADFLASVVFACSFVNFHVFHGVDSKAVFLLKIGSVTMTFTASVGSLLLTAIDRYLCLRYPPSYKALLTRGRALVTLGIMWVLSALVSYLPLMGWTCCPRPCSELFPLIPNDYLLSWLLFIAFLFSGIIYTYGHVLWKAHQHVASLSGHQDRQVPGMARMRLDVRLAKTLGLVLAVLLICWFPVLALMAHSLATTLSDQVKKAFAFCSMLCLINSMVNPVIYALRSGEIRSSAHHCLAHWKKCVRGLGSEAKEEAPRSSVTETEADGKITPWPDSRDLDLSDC

As a reminder, the EC50 is the concentration that produces a half-maximal response. Turning to `CCCCC(CC(N)=O)NC(=O)c1ccc(C2CC2)c(OCC2CC2)n1` (single isomer, unassigned; (-)) [Example 9, (−)-5-Cyclopropyl-6-cyclopropylmethoxy-pyridine-2-carboxylic acid (1-carbamoylmethyl-pentyl)-amide], the EC50 at human CB2 receptors came to 2.1 nM.

As to `CNC(=O)CC1(NC(=O)c2ccc(N3CC(F)(F)C3)c(OCC3CC3)n2)COC1` [Example 37, 6-Cyclopropylmethoxy-5-(3,3-difluoro-azetidin-1-yl)-pyridine-2-carboxylic acid (3-methylcarbamoylmethyl-oxetan-3-yl)-amide], the EC50 at human CB2 receptors was 363 nM; on human CB1 receptors (setting [1]), above 10000 nM.

`COC(=O)CC1(NC(=O)c2ccc(N3CC(F)(F)C3)c(OCC3CC3)n2)CNC(=O)C1` (stereo not shown) [Example 50, (3-{[6-Cyclopropylmethoxy-5-(3,3-difluoro-azetidin-1-yl)-pyridine-2-carbonyl]-amino}-5-oxo-pyrrolidin-3-yl)-acetic acid methyl ester]: the figures for the concentration giving a half-maximal response (EC50) on human CB2 receptors and on human CB1 receptors (setting [1]) were 423 nM and above 10000 nM, respectively.

Turning to `O=C(O)CC1(NC(=O)c2ccc(N3CC(F)(F)C3)c(OCC3CC3)n2)CS(=O)(=O)C1` [Example 56, (3-{[6-Cyclopropylmethoxy-5-(3,3-difluoro-azetidin-1-yl)-pyridine-2-carbonyl]-amino}-1,1-dioxo-1λ6-thietan-3-yl)-acetic acid], the concentration for a half-maximal effect (EC50) at human CB2 receptors is 3 nM; on human CB1 receptors (setting [1]), above 10000 nM.

Turning to `NC(=O)CC(NC(=O)c1ccc(C2CC2)c(OCC2CC2)n1)C1CCOCC1` (single isomer, unassigned; (-)) [Example 34, (−)-5-Cyclopropyl-6-cyclopropylmethoxy-pyridine-2-carboxylic acid [2-carbamoyl-1-(tetrahydro-pyran-4-yl)-ethyl]-amide], the results for the EC50 on human CB2 receptors and on human CB1 receptors (setting [1]) were 2.2 nM and above 10000 nM, respectively.

With `CC(C)(C)[C@H](CC(N)=O)NC(=O)c1ccc(C2CC2)c(OCC2CC2)n1` [Example 35, 5-Cyclopropyl-6-cyclopropylmethoxy-pyridine-2-carboxylic acid ((S)-1-carbamoylmethyl-2,2-dimethyl-propyl)-amide], the EC50 at human CB2 receptors worked out at 0.6 nM; at human CB1 receptors (setting [1]) it was 209 nM.

With `NC(=O)CC1(NC(=O)c2ccc(C3CC3)c(OCC3CC3)n2)COC1` [Example 23, 5-Cyclopropyl-6-cyclopropylmethoxy-pyridine-2-carboxylic acid (3-carbamoylmethyl-oxetan-3-yl)-amide], the figures for the EC50 on human CB2 receptors and at human CB1 receptors (setting [1]) were 1.4 nM and above 10000 nM, respectively.

Take `NC(=O)CC(NC(=O)c1ccc(N2CC(F)(F)C2)c(OCC2CC2)n1)C(F)(F)F` (stereo not shown) [Example 55, 6-Cyclopropylmethoxy-5-(3,3-difluoro-azetidin-1-yl)-pyridine-2-carboxylic acid (1-carbamoylmethyl-2,2,2-trifluoro-ethyl)-amide]: the figures for the EC50 at human CB2 receptors and on human CB1 receptors (setting [1]) were 3 nM and above 10000 nM, respectively.

As to `NC(=O)CC1(NC(=O)c2ccc(C(F)(F)F)c(OCC3CCOCC3)n2)CS(=O)(=O)C1` [Example 78, N-[3-(2-Amino-2-oxoethyl)-1,1-dioxothietan-3-yl]-6-(oxan-4-ylmethoxy)-5-(trifluoromethyl)pyridine-2-carboxamide], the EC50 on human CB2 receptors was 41 nM; at human CB1 receptors (setting [1]), above 10000 nM.

As for `CC(C)CS(=O)(=O)c1nc(C(=O)NC2(CC(N)=O)COC2)ccc1C1CC1` [Example 36, 5-Cyclopropyl-6-(2-methyl-propane-1-sulfonyl)-pyridine-2-carboxylic acid (3-carbamoylmethyl-oxetan-3-yl)-amide], the EC50 was 255 nM on human CB2 receptors and above 10000 nM at human CB1 receptors (setting [1]).

Consider `CN(C)C(=O)CC1(NC(=O)c2ccc(C(F)(F)F)c(OCC3CC3)n2)COC1` [Example 42, 6-Cyclopropylmethoxy-5-trifluoromethyl-pyridine-2-carboxylic acid (3-dimethylcarbamoylmethyl-oxetan-3-yl)-amide], for which the EC50 at human CB2 receptors is 967 nM; on human CB1 receptors (setting [1]) it was above 10000 nM.

For the molecule `NC(=O)[C@H]1CCCC[C@H]1NC(=O)c1ccc(N2CC(F)(F)C2)c(OCC2CC2)n1` [Example 21, (−)-cis-6-Cyclopropylmethoxy-5-(3,3-difluoro-azetidin-1-yl)-pyridine-2-carboxylic acid (2-carbamoyl-cyclohexyl)-amide], the EC50 was 407 nM at human CB2 receptors and above 10000 nM on human CB1 receptors (setting [1]).

As for `NC(=O)CC1(NC(=O)c2ccc(C3(F)COC3)c(OCC3CC3)n2)CSC1` [Example 98, N-[3-(2-Amino-2-oxoethyl)thietan-3-yl]-6-(cyclopropylmethoxy)-5-(3-fluorooxetan-3-yl)pyridine-2-carboxamide], the EC50 on human CB2 receptors was 1.2 nM; at human CB1 receptors (setting [1]) it was above 10000 nM.

Take `NC(=O)CC1(NC(=O)c2ccc(OCC3CC3)c(Cl)n2)COC1` [Example 47, 6-Chloro-5-cyclopropylmethoxy-pyridine-2-carboxylic acid (3-carbamoylmethyl-oxetan-3-yl)-amide]: the EC50 at human CB2 receptors is 793 nM; at human CB1 receptors (setting [1]), above 10000 nM.

On to `CC(C)[C@H](CC(N)=O)NC(=O)c1ccc(N2CC(F)(F)C2)c(OCC2CC2)n1` [Example 19, 6-Cyclopropylmethoxy-5-(3,3-difluoro-azetidin-1-yl)-pyridine-2-carboxylic acid ((S)-1-carbamoylmethyl-2-methyl-propyl)-amide], for which the EC50 at human CB2 receptors was 3.2 nM; on human CB1 receptors (setting [1]) it was above 10000 nM.

On to `NC(=O)CC(NC(=O)c1ccc(N2CC(F)(F)C2)c(OCC2CC2)n1)C1CCOCC1` (single isomer, unassigned; (-)) [Example 58, (−)-6-Cyclopropylmethoxy-5-(3,3-difluoro-azetidin-1-yl)-pyridine-2-carboxylic acid [2-carbamoyl-1-(tetrahydro-pyran-4-yl)-ethyl]-amide], for which, at human CB1 receptors (setting [1]), the EC50 is above 10000 nM.

With `CN1CC(NC(=O)c2ccc(N3CC(F)(F)C3)c(OCC3CC3)n2)CC1=O` (stereo not shown) [Example 3, 6-Cyclopropylmethoxy-5-(3,3-difluoro-azetidin-1-yl)-pyridine-2-carboxylic acid (1-methyl-5-oxo-pyrrolidin-3-yl)-amide], the concentration for a half-maximal effect (EC50) on human CB1 receptors (setting [1]) was above 10000 nM.

Regarding `NC(=O)[C@@H]1CCCC[C@@H]1NC(=O)c1ccc(C2CC2)c(OCC2CC2)n1` (stereo in doubt) [Example 15, (+)-cis-5-Cyclopropyl-6-cyclopropylmethoxy-pyridine-2-carboxylic acid (2-carbamoyl-cyclohexyl)-amide], the EC50 on human CB1 receptors was above 10000 nM.

As to `CC(C)[C@@H](CC(N)=O)NC(=O)c1ccc(C2CC2)c(OCC2CC2)n1` [Example 13, 5-Cyclopropyl-6-cyclopropylmethoxy-pyridine-2-carboxylic acid ((R)-1-carbamoylmethyl-2-methyl-propyl)-amide], the EC50 at human CB2 receptors came to 5 nM.

Turning to `CCCCC(CC(N)=O)NC(=O)c1ccc(C2CC2)c(OCC2CC2)n1` (single isomer, unassigned; (+)) [Example 10, (+)-5-Cyclopropyl-6-cyclopropylmethoxy-pyridine-2-carboxylic acid (1-carbamoylmethyl-pentyl)-amide], on human CB2 receptors, the EC50 was 0.3 nM.

As to `NC(=O)[C@H]1CCCC[C@@H]1NC(=O)c1ccc(C2CC2)c(OCC2CC2)n1` (stereo in doubt) [Example 16, (−)-trans-5-Cyclopropyl-6-cyclopropylmethoxy-pyridine-2-carboxylic acid (2-carbamoyl-cyclohexyl)-amide], the EC50 at human CB1 receptors (setting [1]) amounted to 172 nM.

Consider `NC(=O)CC(NC(=O)c1ccc(N2CC(F)(F)C2)c(OCC2CC2)n1)C1CCOCC1` (single isomer, unassigned; (+)) [Example 59, (+)-6-Cyclopropylmethoxy-5-(3,3-difluoro-azetidin-1-yl)-pyridine-2-carboxylic acid [2-carbamoyl-1-(tetrahydro-pyran-4-yl)-ethyl]-amide], for which the 50% effective concentration (EC50) on human CB1 receptors (setting [1]) was above 10000 nM.

Turning to `NC(=O)CC1(NC(=O)c2ccc(N3CC(F)(F)C3)c(OCC3CC3)n2)CSC1` [Example 91, N-[3-(2-Amino-2-oxoethyl)thietan-3-yl]-6-(cyclopropylmethoxy)-5-(3,3-difluoroazetidin-1-yl)pyridine-2-carboxamide], the EC50 on human CB1 receptors (setting [1]) is above 10000 nM.

Turning to `NC(=O)CC(NC(=O)c1ccc(N2CC(F)(F)C2)c(OCC2CC2)n1)C1CCOCC1` (stereo not shown) [Example 53, 6-Cyclopropylmethoxy-5-(3,3-difluoro-azetidin-1-yl)-pyridine-2-carboxylic acid [2-carbamoyl-1-(tetrahydro-pyran-4-yl)-ethyl]-amide], the EC50 at human CB1 receptors (setting [1]) was above 10000 nM.

Regarding `NC(=O)[C@@H]1CCCC[C@@H]1NC(=O)c1ccc(C2CC2)c(OCC2CC2)n1` (relative stereo) [Example 12, 5-Cyclopropyl-6-cyclopropylmethoxy-pyridine-2-carboxylic acid (rel-(1S,2R)-2-carbamoyl-cyclohexyl)-amide], at human CB1 receptors, the EC50 is above 10000 nM.

As for `CC(C)[C@H](CC(N)=O)NC(=O)c1ccc(C2CC2)c(OCC2CC2)n1` [Example 14, 5-Cyclopropyl-6-cyclopropylmethoxy-pyridine-2-carboxylic acid ((S)-1-carbamoylmethyl-2-methyl-propyl)-amide], the EC50 on human CB2 receptors turned out to be 1.5 nM.
